This experiment has as its target T1, Tyrosine-protein phosphatase non-receptor type 1 (Homo sapiens, UniProt P18031).
T1 sequence (P18031 whole entry): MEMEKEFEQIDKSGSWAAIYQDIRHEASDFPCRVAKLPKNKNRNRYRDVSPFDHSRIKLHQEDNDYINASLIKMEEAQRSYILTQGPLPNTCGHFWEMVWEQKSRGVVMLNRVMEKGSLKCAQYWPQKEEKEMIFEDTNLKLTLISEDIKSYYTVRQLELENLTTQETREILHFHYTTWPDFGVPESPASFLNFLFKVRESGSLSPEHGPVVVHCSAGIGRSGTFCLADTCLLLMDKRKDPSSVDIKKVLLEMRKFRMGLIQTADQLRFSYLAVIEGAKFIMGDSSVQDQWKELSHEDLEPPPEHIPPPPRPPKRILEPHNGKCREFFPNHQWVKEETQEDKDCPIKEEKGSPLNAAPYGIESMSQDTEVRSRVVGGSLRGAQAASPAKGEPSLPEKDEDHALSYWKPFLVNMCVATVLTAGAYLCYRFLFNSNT
In words: Inhibition of PTP1B.

From ChEMBL document CHEMBL1141330, “Vanillic acid derivatives from the green algae Cladophora socialis as potent protein tyrosine phosphatase 1B inhibitors” (J Nat Prod, 2007) come the findings set out here.

As a reminder, the IC50 is the concentration that inhibits the measured activity by half. Low values mean inhibition by little substance, high ones a need for much substance. Take `O=C(O)c1cc2oc3c(Oc4ccc(-c5ccc(O)c(O)c5)cc4O)cc(O)cc3c2cc1O`: it took 3710 nM to reach half-maximal inhibition (IC50).

With `O=C(O)c1cc2oc3c(Oc4ccc(-c5ccc(OS(=O)(=O)O)c(O)c5)cc4O)cc(O)cc3c2cc1O`, the 50% inhibitory concentration (IC50) is 1700 nM.
